Entries after “also recorded” stand apart in the source; their conditions may differ.
Assays:
[1] = biological target: T1, α-glucosidase (Saccharomyces cerevisiae, UniProt P53341); test: In vitro α-glucosidase inhibition assay; format: biochemical; details: for α-Glucosidase inhibitory activity described in words: SAR discussion
[2] = biological target: T1, α-glucosidase; test: Enzyme kinetic studies; format: biochemical

T1 sequence (P53341 whole entry): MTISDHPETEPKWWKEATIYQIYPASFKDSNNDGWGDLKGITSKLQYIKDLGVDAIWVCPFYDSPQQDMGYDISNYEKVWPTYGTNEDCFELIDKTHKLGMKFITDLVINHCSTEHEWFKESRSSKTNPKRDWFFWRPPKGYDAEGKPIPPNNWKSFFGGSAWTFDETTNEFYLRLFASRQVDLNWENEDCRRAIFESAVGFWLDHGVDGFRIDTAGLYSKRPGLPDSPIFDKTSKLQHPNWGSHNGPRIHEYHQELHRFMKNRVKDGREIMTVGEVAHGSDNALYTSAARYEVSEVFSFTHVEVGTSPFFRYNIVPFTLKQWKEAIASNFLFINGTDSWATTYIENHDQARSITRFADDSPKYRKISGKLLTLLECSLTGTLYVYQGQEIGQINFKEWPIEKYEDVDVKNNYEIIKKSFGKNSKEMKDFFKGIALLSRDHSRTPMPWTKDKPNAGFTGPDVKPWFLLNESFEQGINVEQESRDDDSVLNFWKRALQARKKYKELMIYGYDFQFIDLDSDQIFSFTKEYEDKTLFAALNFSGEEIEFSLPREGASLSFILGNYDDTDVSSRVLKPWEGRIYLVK

Fold improvement in activity compared to acarbose ([1]; versus acarbose as positive control) [fold] | Ki [2] [µM] | α-Glucosidase inhibitory activity described in words [1] | Structure (SMILES) | Type of inhibition (Lineweaver-Burk plot) ([2]; Km increased, Vmax unchanged with increasing inhibitor concentration)
15 | 32 |  | COc1ccc(OC)c(NC(=O)CN2CCN(c3nc4ccccc4cc3/C=N/NC(N)=S)CC2)c1 [Compound 7j, (E)-2-(4-(3-((2-carbamothioylhydrazono)methyl)quinolin-2-yl)piperazin-1-yl)-N-(2,5-dimethoxyphenyl)acetamide] | competitive inhibitor; also recorded: competitive inhibition
 |  | diminished activity | Cc1ccccc1NC(=O)CN1CCN(c2nc3ccccc3cc2/C=N/NC(N)=S)CC1 [Compound 7h, (E)-2-(4-(3-((2-carbamothioylhydrazono)methyl)quinolin-2-yl)piperazin-1-yl)-N-(o-tolyl)acetamide] | 
 |  | poor activity | COc1ccc(CNC(=O)CN2CCN(c3nc4ccccc4cc3/C=N/NC(N)=S)CC2)cc1 [Compound 7n, (E)-2-(4-(3-((2-carbamothioylhydrazono)methyl)quinolin-2-yl)piperazin-1-yl)-N-(4-methoxybenzyl)acetamide] | 

— PMC11730591 (Scientific Reports, 2025)
